System: Male BALB/c mice
Experiment: Murine atopic dermatitis model by multiple oxazolone challenges
Format: in vivo
Conditions: result in words
Description: Murine Atopic Dermatitis Model by Multiple Oxazolone Challenges
Method: Male BALB/c mice (n=5-7 per group) were sensitised on Day 1 by the topical application of 50 μL of 1% oxazolone in acetone/olive oil (4:1) on the abdominal skin. On days 8, 10, 12, 15, 17, 19, 22, 24 and 26, animals received repeated challenges with 25 μL of 0.2% oxazolone, applied topically on the inner side of their right ear. On days 8-26, 25 μL of a solution of the test compound (prepared by dissolving compound in acetone/olive oil 4:1 and heating) at the desired concentration were administered on the outer side of the right ears. On days 12, 19 and 26, right ear thickness was determined with a calliper one hour after oxazolone application.

SMILES	in vivo activity in the atopic dermatitis model of example 10
CNC1CN(c2cc(CNC3CCCC3)nc(N)n2)C1 [Example 1t, 4-((Cyclopentylamino)methyl)-6-(3-(methylamino)azetidin-1-yl)pyrimidin-2-amine]	outstanding in vivo activity
CNC1CN(c2cc(CNCC3CC3)nc(N)n2)C1 [Example 1b, 4-((Cyclopropylmethylamino)methyl)-6-(3-(methylamino)azetidin-1-yl)pyrimidin-2-amine]	outstanding in vivo activity
